Columns and labels:
fungi (antimycotic) = conditions: prior art DE-OS 2,623,129 and DE-OS 2,851,086; cited from earlier work
Candida = assay: Antimycotic in vivo activity (oral) in candidosis of mice; conditions: mice SPF-CF, i.v. Candida; oral 25-100 mg/kg 1 h before and 7 h after infection
Procedure: Mice of the SPF-CF type were infected intravenously with 1-2×10^6logarithmically growing Candida cells, which were suspended in physiological sodium chloride solution. The animals were treated orally one hour before and seven hours after the infection, with, in each case, 25-100 mg/kg of body weight of the formulations.
Untreated animals died 3 to 6 days after infection. The survival rate on the 6th day after infection was about 5% in the case of untreated control animals.

[1] = system: dermatophytes, moulds and yeasts; assay: Antimycotic in vitro activity, series dilution test (overall comparison); format: cell-based; conditions: 20° C., 24 to 96 hours
Procedure: The in vitro tests were carried out in series dilution test with germ inocula of an average of 5×10^4 germs/ml of substrate. The nutrient medium was (a) for dermatophytes and moulds: Sabourand's milieu d'epreuve and (b) for yeasts: meat extract/glucose broth. The incubation temperature was 20° C. and the duration of incubation was 24 to 96 hours in the case of yeasts, and 96 hours in the case of dermatophytes and moulds.

| Structure (SMILES) | antimycotic properties (fungi (antimycotic)) | action in vivo compared with compounds (A), (B) and (C) (Candida) | antimycotic action in vitro compared with compounds (A), (B) and (C) [1] |
| --- | --- | --- | --- |
| OC(Cc1ccc(Cl)cc1)(Cn1ccnc1)c1ccc(Cl)cc1 (stereo not drawn) [(A), 1,2-bis(4-chlorophenyl)-2-hydroxy-3-(imidazol-1-yl)-propane] | good antimycotic properties |  |  |
| OC(Cn1ccnc1)(c1cccc(Cl)c1)c1cccc(Cl)c1 [(B), 1,1-bis(3-chlorophenyl)-1-hydroxy-2-(imidazol-1-yl)-ethane] | good antimycotic properties |  |  |
| OC(Cc1ccccc1)(Cn1cncn1)c1ccc(-c2ccccc2)cc1 (stereo not drawn) [(C), 2-(4-biphenyl)-2 hydroxy-1-phenyl-3-(1,2,4-triazol-1-yl)-propane] | good antimycotic properties |  |  |
| CC(C)(Cc1ccc(Cl)cc1)C(O)(Cn1ccnc1)c1ccc(Cl)cc1 (stereo not drawn) [Example 1, 2,4-bis(4-chlorophenyl)-3,3-dimethyl-1-(imidazol-1-yl)-butan-2-ol] |  | better action than the compounds (A), (B) and (C) | better antimycotic action than the compounds (A), (B) and (C) |
| CC(C)(Oc1ccc(Cl)cc1)C(O)(Cn1cncn1)c1ccc(Cl)cc1.Cl (stereo not drawn) [Example 2, 3-(4-chlorophenoxy)-2-(4-chlorophenyl)-3-methyl-1-(1,2,4-triazol-1-yl)-butan-2-ol hydrochloride] |  |  | better antimycotic action than the compounds (A), (B) and (C) |
| CC(C)(c1ccc(Cl)cc1)C(O)(Cn1ccnc1)c1ccc(Cl)cc1 (stereo not drawn) [Example 3] |  |  | better antimycotic action than the compounds (A), (B) and (C) |
| CC(C)(Cc1ccc(Cl)cc1)C(O)(Cn1cncn1)c1ccc(Cl)cc1 (stereo not drawn) [Example 4] |  | better action than the compounds (A), (B) and (C) | better antimycotic action than the compounds (A), (B) and (C) |
| CC(C)(c1ccc(Cl)cc1)C(O)(Cn1cncn1)c1ccc(Cl)cc1 (stereo not drawn) [Example 5] |  |  | better antimycotic action than the compounds (A), (B) and (C) |
| CC(C)(Cc1ccccc1)C(O)(Cn1cncn1)c1ccc(F)cc1 (stereo not drawn) [Example 6] |  |  | better antimycotic action than the compounds (A), (B) and (C) |
| CC(C)(Cc1ccc(Cl)cc1)C(O)(Cn1ccnc1)c1ccc(F)cc1 (stereo not drawn) [Example 8] |  | better action than the compounds (A), (B) and (C) | better antimycotic action than the compounds (A), (B) and (C) |
| CC(C)(Cc1ccc(Cl)cc1)C(O)(Cn1cncn1)c1ccc(F)cc1 (stereo not drawn) [Example 9] |  | better action than the compounds (A), (B) and (C) | better antimycotic action than the compounds (A), (B) and (C) |
| CC(C)(Cc1ccc(F)cc1)C(O)(Cn1ccnc1)c1ccc(Cl)cc1 (stereo not drawn) [Example 10] |  |  | better antimycotic action than the compounds (A), (B) and (C) |
| CC(C)(Cc1ccc(F)cc1)C(O)(Cn1cncn1)c1ccc(Cl)cc1 (stereo not drawn) [Example 11] |  | better action than the compounds (A), (B) and (C) | better antimycotic action than the compounds (A), (B) and (C) |
| CC(C)(Cc1ccc(Cl)cc1Cl)C(O)(Cn1ccnc1)c1ccc(F)cc1 (stereo not drawn) [Example 12] |  |  | better antimycotic action than the compounds (A), (B) and (C) |
| CC(C)(Sc1ccc(Cl)cc1)C(O)(Cn1cncn1)c1ccc(Cl)cc1 (stereo not drawn) [Example 14] |  |  | better antimycotic action than the compounds (A), (B) and (C) |
| CC(C)(Cc1ccc(F)cc1)C(O)(Cn1cncn1)c1ccccc1 (stereo not drawn) [Example 15] |  |  | better antimycotic action than the compounds (A), (B) and (C) |
| CC(C)(Sc1ccc(Cl)cc1)C(O)(Cn1ccnc1)c1ccc(Cl)cc1 (stereo not drawn) [Example 16] |  |  | better antimycotic action than the compounds (A), (B) and (C) |
| CC(C)(Oc1ccc(Cl)cc1Cl)C(O)(Cn1ccnc1)c1ccc(Cl)cc1 (stereo not drawn) [Example 17] |  | better action than the compounds (A), (B) and (C) |  |

| Structure (SMILES) | antimycotic properties (fungi (antimycotic)) | action in vivo compared with compounds (A), (B) and (C) (Candida) | antimycotic action in vitro compared with compounds (A), (B) and (C) [1] |
| --- | --- | --- | --- |
| CC(C)(Oc1ccc(Cl)cc1Cl)C(O)(Cn1cncn1)c1ccc(Cl)cc1 (stereo not drawn) [Example 18] |  | better action than the compounds (A), (B) and (C) | better antimycotic action than the compounds (A), (B) and (C) |
| CC(C)(Oc1ccccc1Cl)C(O)(Cn1cncn1)c1ccc(Cl)cc1 (stereo not drawn) [Example 19] |  |  | better antimycotic action than the compounds (A), (B) and (C) |
| CC(C)(Oc1ccccc1Cl)C(O)(Cn1ccnc1)c1ccc(Cl)cc1 (stereo not drawn) [Example 20] |  |  | better antimycotic action than the compounds (A), (B) and (C) |
| Cc1cc(Cl)ccc1OC(C)(C)C(O)(Cn1cncn1)c1ccc(Cl)cc1 (stereo not drawn) [Example 21] |  |  | better antimycotic action than the compounds (A), (B) and (C) |
| CC(C)(Oc1ccccc1)C(O)(Cn1cncn1)c1ccc(Cl)cc1 (stereo not drawn) [Example 22] |  |  | better antimycotic action than the compounds (A), (B) and (C) |
| CC(C)(Oc1ccccc1)C(O)(Cn1ccnc1)c1ccc(Cl)cc1 (stereo not drawn) [Example 23] |  |  | better antimycotic action than the compounds (A), (B) and (C) |
| Cc1ccc(C(C)(C)C(O)(Cn2ccnc2)c2ccc(Cl)cc2)cc1 (stereo not drawn) [Example 25] |  |  | better antimycotic action than the compounds (A), (B) and (C) |
| CCC(C)(COc1ccc(Cl)cc1)C(O)(Cn1cncn1)c1ccc(Cl)cc1 (stereo not drawn) [Example 26] |  | better action than the compounds (A), (B) and (C) | better antimycotic action than the compounds (A), (B) and (C) |
| CCC(C)(Oc1ccc(Cl)cc1)C(O)(Cn1cncn1)c1ccc(Cl)cc1 (stereo not drawn) [Example 27] |  | better action than the compounds (A), (B) and (C) |  |
| CC(C)(Cc1ccc(F)cc1)C(O)(Cn1cncn1)c1ccc(F)cc1 (stereo not drawn) [Example 28] |  | better action than the compounds (A), (B) and (C) | better antimycotic action than the compounds (A), (B) and (C) |
| CC(C)(Oc1ccc(Cl)cc1)C(O)(Cn1cncn1)c1ccc(F)cc1 (stereo not drawn) [Example 29] |  | better action than the compounds (A), (B) and (C) | better antimycotic action than the compounds (A), (B) and (C) |
| CC(C)(Oc1ccc(F)cc1)C(O)(Cn1cncn1)c1ccc(F)cc1 (stereo not drawn) [Example 30] |  | better action than the compounds (A), (B) and (C) |  |
| CC(C)(Oc1ccc(Cl)cc1)C(O)(Cn1ccnc1)c1ccc(F)cc1 (stereo not drawn) [Example 31] |  | better action than the compounds (A), (B) and (C) |  |
| CC(C)(Oc1ccc(F)cc1)C(O)(Cn1ccnc1)c1ccc(F)cc1 (stereo not drawn) [Example 32] |  | better action than the compounds (A), (B) and (C) |  |
| CC(C)(Cc1ccc(F)cc1)C(O)(Cn1ccnc1)c1ccc(F)cc1 (stereo not drawn) [Example 33] |  | better action than the compounds (A), (B) and (C) |  |
| CCC(C)(Oc1ccc(F)cc1)C(O)(Cn1cncn1)c1ccc(F)cc1 (stereo not drawn) [Example 34] |  | better action than the compounds (A), (B) and (C) |  |
| CCC(C)(Oc1ccc(Cl)cc1)C(O)(Cn1cncn1)c1ccc(F)cc1 (stereo not drawn) [Example 35] |  | better action than the compounds (A), (B) and (C) | better antimycotic action than the compounds (A), (B) and (C) |

From US4879385A, “Substituted hydroxyalkyl-azoles and their use as antimycotics” (Bayer Aktiengesellschaft, priority 1982, dated 1989)
